According to publication PMC9127750, “Structure-based design of CDC42 effector interaction inhibitors for the treatment of cancer” (Cell reports, 2022):
Values joined by “and” are separate entries in the source; they are usually repeats but may differ in a detail not shown here. Equal entries are not always repeated.

Test system: WM3248 melanoma cells, 486 antibodies
Experiment: Reverse phase protein arrays (RPPA)
Assay type: cell-based, Human
From the text: Pellets were snap frozen in liquid nitrogen and shipped to MD Anderson Cancer Center core RPPA facility for RPPA analysis (Table S5). Three biological replicates for each sample were generated.
Nomenclatures on the RPPA heatmaps: name_of_antibody.species_of_antibody.status_of_antibody. V - antibody validated; C - validation of antibody in progress; Q - antibody nonspecific; E – under evaluation; antibodies raised in M - mouse, G - goat, R - rabbit, or T - rat.

[1] = Norm_5: replicates 1-3 and Average, relative to 0
[2] = Norm_5, replicates 1-3 and Average, relative to Norm_0

## CN(C)c1cccc(Nc2cc(-c3ccccc3)nc(C3CCNCC3)n2)c1 [ARN22089, N1,N1-dimethyl-N3-(6-phenyl-2-(piperidin-4-yl)pyrimidin-4-yl)benzene-1,3-diamine]
[1]
  RSK1.R.V normalized RPPA signal: 1.085 and 0.967 and 1.032
  RSK.R.C normalized RPPA signal: 1.076 and 1.100
  Rab11.R.C normalized RPPA signal: 1.016 and 1.047 and 1.025 and 1.029
  Rab25.R.V normalized RPPA signal: 0.979 and 1.011 and 0.966 and 0.985
  Rad17_pS645.R.V normalized RPPA signal: 0.979 and 0.856 and 0.975
  Rad23A.R.C normalized RPPA signal: 0.977 and 1.149 and 0.762 and 0.963
  Rad50.R.V normalized RPPA signal: 1.246 and 0.924 and 1.080
  Rad51.R.C normalized RPPA signal: 0.775 and 0.822 and 0.890 and 0.829
  Raptor.R.V normalized RPPA signal: 0.903 and 1.058 and 0.970
  Rb.M.Q normalized RPPA signal: 0.962 and 0.918 and 0.956 and 0.945
  Rb_pS807_S811.R.V normalized RPPA signal: 0.882 and 1.011 and 0.977
  Rheb.M.C normalized RPPA signal: 1.004 and 1.059 and 1.001 and 1.021
  Rictor.R.C normalized RPPA signal: 1.004 and 0.961 and 1.013
  Rictor_pT1135.R.V normalized RPPA signal: 1.047 and 0.998 and 1.024 and 1.023
  S6.M.V normalized RPPA signal: 1.120 and 0.958 and 1.452
  S6_pS235_S236.R.V normalized RPPA signal: 1.127 and 0.835 and 1.012 and 0.991
  S6_pS240_S244.R.V normalized RPPA signal: 0.956 and 0.805 and 0.753 and 0.838
  SCD.M.V normalized RPPA signal: 0.971 and 0.991 and 1.085 and 1.016
  SDHA.R.V normalized RPPA signal: 1.033 and 1.016 and 1.031
  SF2.R.V normalized RPPA signal: 0.946 and 0.943 and 1.034 and 0.974
  SFRP1.R.V normalized RPPA signal: 0.931 and 0.917 and 0.927 and 0.925
  SGK1.R.V normalized RPPA signal: 1.122 and 0.983 and 1.065
  SGK3.R.V normalized RPPA signal: 0.809 and 0.879 and 0.966 and 0.885
  SHP2.R.V normalized RPPA signal: 0.965 and 0.955 and 0.959 and 0.960
  SHP.2_pY542.R.C normalized RPPA signal: 1.007 and 1.103 and 0.995 and 1.035
  SIRPαR.V normalized RPPA signal: 0.995 and 0.945 and 0.836 and 0.925
  SLC1A5.R.C normalized RPPA signal: 1.053 and 0.972
  SOD1.M.V normalized RPPA signal: 0.959 and 1.035 and 0.980
  SOD2.R.V normalized RPPA signal: 1.012 and 1.026 and 0.995
  SOX7.R.V normalized RPPA signal: 0.939 and 1.028 and 0.910 and 0.959
  STING.R.V normalized RPPA signal: 0.946 and 1.077 and 1.149 and 1.057
  Shc_pY317.R.C normalized RPPA signal: 0.575 and 1.701 and 1.009
  Slfn11.G.C normalized RPPA signal: 0.898 and 1.001 and 0.887 and 0.929
  Smac.M.Q normalized RPPA signal: 0.860 and 1.033 and 0.824 and 0.905
  Smad1.R.V normalized RPPA signal: 1.028 and 1.016 and 1.057 and 1.034
  Smad3.R.V normalized RPPA signal: 1.027 and 1.110 and 0.885 and 1.007
  Smad4.R.V normalized RPPA signal: 0.953 and 0.919 and 1.129 and 1.000
  Snail.M.Q normalized RPPA signal: 0.807 and 0.836 and 0.899 and 0.847
  Sox2.R.V normalized RPPA signal: 1.113 and 0.987 and 0.935 and 1.012
  Sox17.R.V normalized RPPA signal: 0.914 and 0.904 and 1.000 and 0.939
  Src.M.V normalized RPPA signal: 0.923 and 1.011 and 1.048 and 0.994
  Src_pY416.R.V normalized RPPA signal: 0.930 and 0.928 and 0.956
  Src_pY527.R.V normalized RPPA signal: 1.055 and 1.158 and 1.605 and 1.273
  Stat1_pY701.R.V normalized RPPA signal: 0.914 and 0.929 and 0.961 and 0.935
  Stat3.R.C normalized RPPA signal: 0.970 and 0.910 and 0.975
  Stat3_pY705.R.C normalized RPPA signal: 1.031 and 0.914 and 0.997 and 0.980
  Stat5a.R.V normalized RPPA signal: 0.989 and 1.022 and 1.028 and 1.013
  Stathmin.1.R.V normalized RPPA signal: 1.025 and 1.018 and 0.975 and 1.006
  Syk.M.V normalized RPPA signal: 0.694 and 0.899 and 1.030 and 0.874
  Synaptophysin.R.C normalized RPPA signal: 0.918 and 0.774 and 1.022 and 0.904
  TAZ.R.V normalized RPPA signal: 0.970 and 1.124 and 0.886 and 0.994
  TEAD.R.C normalized RPPA signal: 0.913 and 0.942 and 0.954 and 0.936
  TFAM.R.V normalized RPPA signal: 0.945 and 1.024 and 1.101 and 1.023
  TFRC.R.V normalized RPPA signal: 0.905 and 0.974 and 0.942 and 0.940
  TIGAR.R.V normalized RPPA signal: 1.046 and 0.999 and 1.028
  TRAP1.M.V normalized RPPA signal: 0.917 and 0.980 and 0.909 and 0.935
  TRIM24.R.C normalized RPPA signal: 0.917 and 0.931 and 1.013 and 0.954
  TRIM25.R.C normalized RPPA signal: 0.925 and 1.108 and 1.361 and 1.131
  TRIP13.R.V normalized RPPA signal: 0.993 and 0.918 and 0.936
  Tau.M.C normalized RPPA signal: 1.003 and 0.977 and 1.007
  Transglutaminase.M.V normalized RPPA signal: 1.143 and 1.434 and 0.745 and 1.107
[2]
  A.Raf.R.V RPPA signal, normalized: 1.063 and 0.973 and 1.128 and 1.055
  A.Raf_pS299.R.C RPPA signal, normalized: 0.910 and 0.929 and 0.996 and 0.945
  ACC1.R.C RPPA signal, normalized: 1.079 and 1.112
  ACC_pS79.R.V RPPA signal, normalized: 0.996 and 1.006 and 1.005 and 1.002
  ACLY_pS455.R.V RPPA signal, normalized: 0.993 and 1.161 and 0.844 and 0.999
  ACSL1.R.V RPPA signal, normalized: 0.995 and 0.806 and 0.904
  ACVRL1.R.C RPPA signal, normalized: 0.940 and 0.993 and 0.936 and 0.956
  ADAR1.M.V RPPA signal, normalized: 0.990 and 0.970 and 1.080 and 1.013
  ALKBH5.R.V RPPA signal, normalized: 1.026 and 1.137 and 0.879 and 1.014
  AMPK.a2_pS345.R.V RPPA signal, normalized: 0.974 and 1.081 and 1.055
  AMPKa.R.C RPPA signal, normalized: 1.048
  AMPKa_pT172.R.C RPPA signal, normalized: 1.029 and 0.832 and 0.850 and 0.903
  AR.R.V RPPA signal, normalized: 1.053 and 0.956 and 1.050 and 1.020
  ARID1A.R.C RPPA signal, normalized: 1.008 and 1.012 and 1.065
  ASNS.R.V RPPA signal, normalized: 1.454 and 1.206
  ATM.R.V RPPA signal, normalized: 0.983 and 1.033 and 1.311 and 1.109
  ATM_pS1981.R.V RPPA signal, normalized: 0.928 and 0.941 and 0.961 and 0.943
  ATP5A.M.C RPPA signal, normalized: 1.127 and 1.377 and 0.535 and 1.013
  ATP5H.R.V RPPA signal, normalized: 1.032 and 1.077 and 0.898 and 1.003
  ATR.R.V RPPA signal, normalized: 0.945 and 0.970 and 0.954
